Reference: patent US6267968A, “MDP derivatives and conjugates having haematipoietic function stimulating activity, and compositions containing same” (Vacsyn S.A., priority 1995, dated 2001)
Entries after “also recorded” stand apart in the source; their conditions may differ.

Legend:
[1] = test system: circulating myelocytes (HSC); assay: Mobilization of HSC after combined oral treatment with AZT and Muradimetide (Example 4); format: in vivo, mice
Protocol: Table 3 below and FIG. 11 show the effect of an oral treatment of mice with Muradimetide before, at the same time as or after AZT administered at 50 mg per kg, on the number of circulating myelocytes tested 24 hours after 4 daily administrations.
The mean number of circulating myelocytes before the treatment lies between 3 and 15×10^4 cells per ml in the 5 groups.
The "P-value" was calculated by the Mann Whitney U Rank test.

[2] = test system: circulating neutrophils, leukocytes, monocytes and myelocytes; assay: Comparison of Muradimetide and GM-CSF after intravenous AZT (Example 9); format: in vivo, female Swiss mice; settings: AZT 40 mg per kg i.v. days 0-3; Muradimetide 25 mg per kg or mGM-CSF 125 μg per kg i.v. 4 hours before
Protocol: FIGS. 4, 5, 6 and 7 show the effect of a treatment of mice with Muradimetide or with mGM-CSF on the changes in the circulating neutrophils, in the circulating leukocytes or in the circulating monocytes or in the circulating myelocytes, respectively, after an intravenous administration of AZT.
Female Swiss mice were treated intravenously with 40 mg per kg of AZT on days 0, 1, 2 and 3. The groups of mice (5 per group) receive, 4 hours before AZT, either physiological saline, or Muradimetide at 25 mg per kg or mGM-CSF at 125 μg per kg intravenously. Counts are done on days 0, 2, 3, 4 and 8. The asterisks above the histograms indicate that there is a significant difference in the count compared to the values obtained before the treatment on day 0.

[3] = test system: circulating HSC (GM-CFU, LPP-CFU, HPP-CFU, CAFC, LTC-IC); assay: Mobilization of HSC by stage of differentiation, culture of blood mononuclear cells (Example 7); format: in vivo, Balb/c mice; settings: AZT 50 mg/kg, MDM 25 mg/kg or mixture once daily for three days; blood 24 hours after last administration
Protocol: In all cases, the culture conditions, especially their duration, were chosen to permit an optimal detection of the different populations in question. For this study, the effect of injecting saline (X--), AZT at 50 mg/kg, MDM at 25 mg/kg and the mixture of the two on the number of circulating HSC were compared. The mononuclear cells after purification were cultured for 5 days in order to count the GM-CFU (for granulocyte-macrophage colony forming units), for 28 days to count the low proliferating potential (LPP) colony forming units and the high proliferating potential (HPP) CFU. The CAFC were counted after 14 days of culture. The LTC-IC after 28 days. The results are presented in FIGS. 14a, 14b, 14c and 14d, respectively. The mice (10 Balb/c per group) received once daily and for three consecutive days either physiological saline, or AZT, or MDM or the mixture of the two under the above dose conditions. Twenty-four hours after the last administration, the blood of all the mice in each group was collected. For the experiments depicted in FIGS. 14a, 14b and 14c, the mononuclear cells were then separated on density gradients and cultured in a semisolid medium for a period of 5 days for the GM-CFU and 28 days for the LPP-CFU. […]

[4] = test system: normal circulating leukocytes (predominantly neutrophils and lymphocytes) and immature circulating leukocytes (myelocytes); assay: Muradimetide administered alone intravenously for 4 consecutive days, circulating cell counts (Example 1); format: in vivo, mice; settings: for No. of Lymphocytes / No. of Myelocytes / No. of Neutrophils: 25 mg/kg i.v.; for No. of Lymphocytes / No. of Myelocytes / No. of Neutrophils / No. of Leukocytes: 4 consecutive days; for No. of Leukocytes: Muradimetide 25 mg/kg i.v.
Protocol: Table 1 below depicts the leukocyte, neutrophil, lymphocyte and myelocyte counts as a function of the time after treatment with Muradimetide alone administered at a dose of 25 mg/kg. The treatment is performed for 4 consecutive days by intravenous injection.

[5] = test system: red cells and platelets; assay: 7-day oral treatment with AZT, muradimetide or both, red cell and platelet counts (Example 3); format: in vivo; settings: p.o. once daily for 7 consecutive days; AZT 100 mg/kg, muradimetide 50 mg/kg or both; counts up to day 10
Protocol: The effect of a 7-day treatment on the number of red cells and of platelets is seen in FIGS. 9 and 10, respectively. The counts are shown as a percentage of those obtained on day 0. Female BALB/c mice (5 per group) are treated once daily for 7 consecutive days with 100 mg/kg of AZT (Δ), 50 mg/kg of muradimetide (.quadrature.) or simultaneously with 100 mg/kg of AZT and 50 mg/kg of muradimetide (.largecircle.). Platelet or red cell counts were done on day 0 and up to 10 days following the beginning of the treatment. No toxicity on the platelets is seen, either with AZT, muradimetide or the mixture of these compounds. The upward trend in their number is apparent between days 4 and 5.

Compound: COC(=O)CC[C@@H](NC(=O)[C@H](C)NC(=O)[C@@H](C)O[C@H]1[C@H](O)[C@@H](CO)OC(O)[C@@H]1NC(C)=O)C(=O)OC (stereo partly drawn) [Muradimetide, Nac--Mur--L--Ala--D--Glu--[OCH3]--OCH3]
- effect on the mobilization of HSC (myelocyte count, FIG. 11) ([1]; MDM 25 mg/kg, AZT 50 mg/kg or mixture, oral, days 0-3 and 7-10 (2 weeks)): significant effect
- No. of circulating myelocytes ([1]; p.o., one compound alone at 0 h (AZT 50 mg/Kg or Muradimetide 25 mg/Kg), 24 hours after 4 daily administrations): 17 ± 15 × 10^4 /ml
- HSC in the blood (circulating myelocytes, FIG. 7) [2]: very strong elevation; also recorded: mobilizes HSC
- leukocyte and neutrophil counts [2]: markedly pronounced effect
- effect on the number of circulating HSC (GM-CFU, LPP-CFU, HPP-CFU, CAFC; FIGS. 14a-14d) [3]: clearly apparent
- No. of Lymphocytes ([4]; day 0): 38 ± 12 × 10^5 /ml
- No. of Myelocytes ([4]; day 0): 7 ± 6 × 10^4 /ml
- No. of Neutrophils ([4]; day 0): 11 ± 3 × 10^5 /ml
- No. of Lymphocytes ([4]; day 2): 41 ± 17 × 10^5 /ml
- No. of Myelocytes ([4]; day 2): 8 ± 8 × 10^4 /ml
- No. of Neutrophils ([4]; day 2): 10 ± 3 × 10^5 /ml
- No. of Lymphocytes ([4]; day 3): 35 ± 13 × 10^5 /ml
- No. of Myelocytes ([4]; day 3): 40 ± 5 × 10^4 /ml
- No. of Neutrophils ([4]; day 3): 13 ± 5 × 10^5 /ml
- No. of Lymphocytes ([4]; day 4): 34 ± 8 × 10^5 /ml
- No. of Myelocytes ([4]; day 4): 72 ± 27 × 10^4 /ml
- No. of Neutrophils ([4]; day 4): 12 ± 4 × 10^5 /ml
- No. of Lymphocytes ([4]; day 7): 38 ± 10 × 10^5 /ml
- No. of Myelocytes ([4]; day 7): 4 ± 4 × 10^4 /ml
- No. of Neutrophils ([4]; day 7): 12 ± 4 × 10^5 /ml
- No. of Leukocytes ([4]; day 2): 52 ± 12 × 10^5 /ml
- No. of Leukocytes ([4]; day 3): 52 ± 17 × 10^5 /ml
- No. of Leukocytes ([4]; day 4): 52 ± 15 × 10^5 /ml
- No. of Leukocytes ([4]; day 7): 50 ± 13 × 10^5 /ml
- No. of Leukocytes ([4]; day of measurement 0): 50 ± 14 × 10^5 /ml
- increase in the number of circulating myelocytes ([4]; Muradimetide administered alone, days 3 and 4): highly significant
- toxicity on the platelets [5]: No toxicity
